Values of other authors in patent US20070105912A1, “Pharmaceutical compositions comprising lercanidipine” (priority 2003, published 2007).
“And” between values parts separate entries of the source, which are not always exact repeats. Identical values can stand only once.

COC(=O)C1=C(C)NC(C)=C(C(=O)OC(C)(C)CN(C)CCC(c2ccccc2)c2ccccc2)C1c1cccc([N+](=O)[O-])c1 (centres unmarked) [Lercanidipine, methyl 1,1-N-trimethyl-N-(3,3-diphenylpropyl)aminoethyl 1,4dihydro 6-dimethyl (3-nitrophenyl)pyridine-3,5-dicarboxylate]
Bound to plasma proteins (plasma proteins): more than 98%
Terminal elimination t1/2 (in vivo): 2 to 5 h
Time of peak plasma levels following dosing (oral administration): 1.5 to 3 h
Fraction of the oral dose excreted in urine (oral dose): about 50%
Increase of amount absorbed with simultaneous intake of food (oral, with food vs without food): 3 to 4 times and 3-4 times
